Measurements published in PubChem BioAssay (NCI).
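Briefly, cells in 96-well plates were exposed to five compound concentrations for 48 h, and endpoints were estimated by linear interpolation. GI50 marks 50% less growth. TGI is the concentration that stops growth completely.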

How the values were obtained:
Experiment in all cases: DTP human tumour cell line panel, 48 h
[1] = tested on: 786-0 renal
[2] = tested on: A498 renal
[3] = tested on: A549 NSCLC
[4] = tested on: ACHN renal
[5] = tested on: BT-549 breast
[6] = tested on: CAKI-1 renal
[7] = tested on: CCRF-CEM leukemia
[8] = tested on: COLO 205 colon
[9] = tested on: DU-145 prostate
[10] = tested on: EKVX NSCLC
[11] = tested on: HCC-2998 colon
[12] = tested on: HCT-116 colon
[13] = tested on: HCT-15 colon
[14] = tested on: HL-60(TB) leukemia
[15] = tested on: HOP-62 NSCLC
[16] = tested on: HOP-92 NSCLC
[17] = tested on: HS 578T breast
[18] = tested on: HT29 colon
[19] = tested on: IGROV1 ovarian
[20] = tested on: K-562 leukemia
[21] = tested on: KM12 colon
[22] = tested on: LOX IMVI melanoma
[23] = tested on: M14 melanoma
[24] = tested on: MALME-3M melanoma
[25] = tested on: MCF7 breast
[26] = tested on: MDA-MB-231 breast
[27] = tested on: MDA-MB-435
[28] = tested on: MOLT-4 leukemia
[29] = tested on: NCI-H226 lung
[30] = tested on: NCI-H23 lung
[31] = tested on: NCI-H460 lung
[32] = tested on: NCI-H522 lung
[33] = tested on: NCI/ADR-RES ovarian
[34] = tested on: OVCAR-3 ovarian
[35] = tested on: OVCAR-4 ovarian
[36] = tested on: OVCAR-5 ovarian
[37] = tested on: OVCAR-8 ovarian
[38] = tested on: PC-3 prostate
[39] = tested on: RPMI-8226 leukemia
[40] = tested on: RXF 393 renal
[41] = tested on: SF-268 CNS
[42] = tested on: SF-295 CNS
[43] = tested on: SF-539 CNS
[44] = tested on: SK-MEL-2 melanoma
[45] = tested on: SK-MEL-28 melanoma
[46] = tested on: SK-MEL-5 melanoma
[47] = tested on: SK-OV-3 ovarian
[48] = tested on: SN12C renal
[49] = tested on: SNB-19 CNS
[50] = tested on: SNB-75 CNS
[51] = tested on: SR leukemia
[52] = tested on: SW-620 colon
[53] = tested on: T-47D breast
[54] = tested on: TK-10 renal
[55] = tested on: U251 CNS
[56] = tested on: UACC-257 melanoma
[57] = tested on: UACC-62 melanoma
[58] = tested on: UO-31 renal

With `C=CC(=O)N1CCC[C@@H](n2nc(-c3ccc(Oc4ccccc4)cc3)c3c(N)ncnc32)C1` the GI50 [1] was > 4.5 µM, the TGI [1] was > 10 µM and the GI50 [2] was 0.46 µM. For the same molecule, the TGI [2] was > 5.51 µM, the GI50 [3] was > 10 µM and the TGI [3] was > 10 µM. For the same molecule, the GI50 [4] was 0.669 µM, the TGI [4] was > 10 µM and the GI50 [5] was > 7.69 µM. For the same molecule, the TGI [5] was > 10 µM, the GI50 [6] was > 6.12 µM and the TGI [6] was > 10 µM. The GI50 [7] was > 10 µM, the TGI [7] was > 10 µM and the GI50 [8] was > 10 µM. For the same molecule, the TGI [8] was > 10 µM, the GI50 [9] was 3.03 µM and the TGI [9] was > 10 µM. For the same molecule, the GI50 [10] was 0.396 µM, the TGI [10] was > 10 µM and the GI50 [11] was > 10 µM. The TGI [11] was > 10 µM, the GI50 [12] was > 10 µM and the TGI [12] was > 10 µM. The GI50 [13] was > 10 µM, the TGI [13] was > 10 µM and the GI50 [14] was > 5.51 µM. The TGI [14] was > 10 µM, the GI50 [15] was > 10 µM and the TGI [15] was > 10 µM. For the same molecule, the GI50 [16] was 2.67 µM, the TGI [16] was > 8.69 µM and the GI50 [17] was > 10 µM. The TGI [17] was > 10 µM, the GI50 [18] was > 7.23 µM and the TGI [18] was > 10 µM. The GI50 [19] was 0.418 µM, the TGI [19] was > 10 µM and the GI50 [20] was > 10 µM. For the same molecule, the TGI [20] was > 10 µM, the GI50 [21] was > 8.92 µM and the TGI [21] was > 10 µM. For the same molecule, the GI50 [22] was > 5.39 µM, the TGI [22] was > 10 µM and the GI50 [23] was > 7.36 µM. The TGI [23] was > 10 µM, the GI50 [24] was > 10 µM and the TGI [24] was > 10 µM. The GI50 [25] was > 8.82 µM, the TGI [25] was > 10 µM and the GI50 [26] was 9.69 µM. The TGI [26] was > 10 µM, the GI50 [27] was > 10 µM and the TGI [27] was > 10 µM. For the same molecule, the GI50 [28] was > 5.29 µM, the TGI [28] was > 10 µM and the GI50 [29] was > 6.06 µM. For the same molecule, the TGI [29] was > 10 µM, the GI50 [30] was > 10 µM and the TGI [30] was > 10 µM. For the same molecule, the GI50 [31] was > 10 µM, the TGI [31] was > 10 µM and the GI50 [32] was 0.0859 µM. For the same molecule, the TGI [32] was > 10 µM, the GI50 [33] was > 6.08 µM and the TGI [33] was > 10 µM. For the same molecule, the GI50 [34] was > 6.8 µM, the TGI [34] was > 10 µM and the GI50 [35] was > 10 µM. The TGI [35] was > 10 µM, the GI50 [36] was > 10 µM and the TGI [36] was > 10 µM. For the same molecule, the GI50 [37] was > 8.16 µM, the TGI [37] was > 10 µM and the GI50 [38] was > 10 µM. The TGI [38] was > 10 µM, the GI50 [39] was > 7.41 µM and the TGI [39] was > 10 µM. For the same molecule, the GI50 [40] was > 5.25 µM, the TGI [40] was > 10 µM and the GI50 [41] was > 4.98 µM. For the same molecule, the TGI [41] was > 10 µM, the GI50 [42] was > 9.42 µM and the TGI [42] was > 10 µM. The GI50 [43] was > 6.36 µM, the TGI [43] was > 10 µM and the GI50 [44] was > 10 µM. The TGI [44] was > 10 µM, the GI50 [45] was > 10 µM and the TGI [45] was > 10 µM. For the same molecule, the GI50 [46] was > 10 µM, the TGI [46] was > 10 µM and the GI50 [47] was 0.0285 µM. For the same molecule, the TGI [47] was > 2.42 µM, the GI50 [48] was > 4.69 µM and the TGI [48] was > 10 µM. The GI50 [49] was > 10 µM, the TGI [49] was > 10 µM and the GI50 [50] was > 5.6 µM. The TGI [50] was > 10 µM, the GI50 [51] was > 10 µM and the TGI [51] was > 10 µM. The GI50 [52] was > 10 µM, the TGI [52] was > 10 µM and the GI50 [53] was 0.0945 µM. For the same molecule, the TGI [53] was > 10 µM, the GI50 [54] was 0.0409 µM and the TGI [54] was 3.14 µM. For the same molecule, the GI50 [55] was 9.81 µM, the TGI [55] was > 10 µM and the GI50 [56] was > 10 µM. For the same molecule, the TGI [56] was > 10 µM, the GI50 [57] was > 4.22 µM and the TGI [57] was > 10 µM. The GI50 [58] was 1.1 µM and the TGI [58] was > 10 µM.
`O=C(N/N=C/c1ccncc1)c1ccc(F)cc1` was tested, and the GI50 [1] was > 40 µM, the TGI [1] was > 40 µM and the GI50 [2] was 34.8 µM. For the same molecule, the TGI [2] was > 40 µM, the GI50 [3] was > 40 µM and the TGI [3] was > 40 µM. The GI50 [4] was > 40 µM, the TGI [4] was > 40 µM and the GI50 [5] was > 40 µM. The TGI [5] was > 40 µM, the GI50 [6] was > 40 µM and the TGI [6] was > 40 µM. The GI50 [7] was > 40 µM, the TGI [7] was > 40 µM and the GI50 [8] was > 40 µM. The TGI [8] was > 40 µM, the GI50 [9] was > 40 µM and the TGI [9] was > 40 µM. The GI50 [10] was > 40 µM, the TGI [10] was > 40 µM and the GI50 [11] was > 40 µM. For the same molecule, the TGI [11] was > 40 µM, the GI50 [12] was > 40 µM and the TGI [12] was > 40 µM. The GI50 [13] was > 40 µM, the TGI [13] was > 40 µM and the GI50 [14] was > 40 µM. The TGI [14] was > 40 µM, the GI50 [15] was > 40 µM and the TGI [15] was > 40 µM. For the same molecule, the GI50 [16] was > 40 µM, the TGI [16] was > 40 µM and the GI50 [17] was > 40 µM. For the same molecule, the TGI [17] was > 40 µM, the GI50 [18] was > 40 µM and the TGI [18] was > 40 µM. The GI50 [19] was > 40 µM, the TGI [19] was > 40 µM and the GI50 [20] was > 40 µM. For the same molecule, the TGI [20] was > 40 µM, the GI50 [21] was > 40 µM and the TGI [21] was > 40 µM. The GI50 [22] was > 40 µM, the TGI [22] was > 40 µM and the GI50 [23] was > 40 µM. For the same molecule, the TGI [23] was > 40 µM, the GI50 [24] was > 40 µM and the TGI [24] was > 40 µM. The GI50 [25] was > 40 µM, the TGI [25] was > 40 µM and the GI50 [26] was > 40 µM. The TGI [26] was > 40 µM, the GI50 [27] was > 40 µM and the TGI [27] was > 40 µM. For the same molecule, the GI50 [28] was > 40 µM, the TGI [28] was > 40 µM and the GI50 [29] was > 40 µM. For the same molecule, the TGI [29] was > 40 µM, the GI50 [30] was > 40 µM and the TGI [30] was > 40 µM. The GI50 [31] was > 40 µM, the TGI [31] was > 40 µM and the GI50 [32] was > 40 µM. The TGI [32] was > 40 µM, the GI50 [33] was > 40 µM and the TGI [33] was > 40 µM. For the same molecule, the GI50 [34] was > 40 µM, the TGI [34] was > 40 µM and the GI50 [35] was > 40 µM. The TGI [35] was > 40 µM, the GI50 [36] was > 40 µM and the TGI [36] was > 40 µM. The GI50 [37] was > 40 µM, the TGI [37] was > 40 µM and the GI50 [38] was > 40 µM. For the same molecule, the TGI [38] was > 40 µM, the GI50 [39] was > 40 µM and the TGI [39] was > 40 µM. The GI50 [40] was > 40 µM, the TGI [40] was > 40 µM and the GI50 [41] was > 40 µM. The TGI [41] was > 40 µM, the GI50 [42] was > 40 µM and the TGI [42] was > 40 µM. For the same molecule, the GI50 [43] was > 40 µM, the TGI [43] was > 40 µM and the GI50 [44] was > 40 µM. For the same molecule, the TGI [44] was > 40 µM, the GI50 [45] was > 40 µM and the TGI [45] was > 40 µM. The GI50 [46] was > 40 µM, the TGI [46] was > 40 µM and the GI50 [47] was > 40 µM. For the same molecule, the TGI [47] was > 40 µM, the GI50 [48] was > 40 µM and the TGI [48] was > 40 µM. For the same molecule, the GI50 [49] was > 40 µM, the TGI [49] was > 40 µM and the GI50 [50] was > 40 µM. For the same molecule, the TGI [50] was > 40 µM, the GI50 [51] was > 40 µM and the TGI [51] was > 40 µM. The GI50 [52] was > 40 µM, the TGI [52] was > 40 µM and the GI50 [53] was > 40 µM. The TGI [53] was > 40 µM, the GI50 [54] was > 40 µM and the TGI [54] was > 40 µM. For the same molecule, the GI50 [55] was > 40 µM, the TGI [55] was > 40 µM and the GI50 [56] was > 40 µM. For the same molecule, the TGI [56] was > 40 µM, the GI50 [57] was > 40 µM and the TGI [57] was > 40 µM. The GI50 [58] was > 40 µM and the TGI [58] was > 40 µM.
